According to US7335632B2, “Beta-secretase inhibitors and methods of use thereof” (CoMentis, Inc., priority 2001, dated 2008):
Read-outs that look alike come from different tables or passages of the source.

Assays:
Assay type in all cases: biochemical
[1] = target: Cathepsin D (Homo sapiens, UniProt P07339); assay: Inhibition of cathepsin D activity (substrate peptide […], MALDI-TOF); conditions: pH 4.1, 37 degrees C., read-out: Cath D Ki
[2] = target: memapsin 2 (Homo sapiens, UniProt P56817); assay: Inhibition of memapsin 2 beta-secretase activity toward fluorogenic substrate FS-2; conditions: pH 4, 37° C., 20 minutes pre-incubation, substrate FS-2, tight-binding model; read-out: M2 Ki
Sequence of memapsin 2 (P56817 46-501): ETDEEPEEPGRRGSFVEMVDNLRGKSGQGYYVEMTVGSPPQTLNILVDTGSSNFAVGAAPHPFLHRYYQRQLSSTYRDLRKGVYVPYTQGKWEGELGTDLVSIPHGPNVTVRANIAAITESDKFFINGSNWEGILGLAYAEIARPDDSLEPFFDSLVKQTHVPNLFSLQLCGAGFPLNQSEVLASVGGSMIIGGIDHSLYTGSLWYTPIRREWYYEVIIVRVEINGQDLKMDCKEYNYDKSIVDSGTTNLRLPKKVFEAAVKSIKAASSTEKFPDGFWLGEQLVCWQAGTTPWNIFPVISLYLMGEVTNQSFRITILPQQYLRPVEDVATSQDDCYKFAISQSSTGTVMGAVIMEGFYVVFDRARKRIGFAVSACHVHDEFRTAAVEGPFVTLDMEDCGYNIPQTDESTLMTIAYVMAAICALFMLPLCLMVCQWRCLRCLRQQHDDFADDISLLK
Protocol: Potency of compounds were determined by measurement of their inhibition of memapsin 2 activity toward a fluorescent substrate. […] Briefly, assays were performed at pH 4, 37° C., by pre-incubation of memapsin 2 enzyme with compound for 20 minutes. Activity measure was initiated by addition of a fluorogenic substrate FS-2 (Bachem Americas, Torrance, Calif.). Fluorescent signal increase over time was measured as a rate of hydrolysis of the peptide substrate.

[3] = target: T1, memapsin 1 (Homo sapiens, UniProt Q9Y5Z0); assay: Inhibition of memapsin 1 beta-secretase activity (substrate peptide […], MALDI-TOF); conditions: pH 4.1, 37 degrees C., substrate NH3-ELDLAVEFWHDR-CO2, MALDI-TOF; read-out: M1 Ki
T1 sequence (Q9Y5Z0 63-518): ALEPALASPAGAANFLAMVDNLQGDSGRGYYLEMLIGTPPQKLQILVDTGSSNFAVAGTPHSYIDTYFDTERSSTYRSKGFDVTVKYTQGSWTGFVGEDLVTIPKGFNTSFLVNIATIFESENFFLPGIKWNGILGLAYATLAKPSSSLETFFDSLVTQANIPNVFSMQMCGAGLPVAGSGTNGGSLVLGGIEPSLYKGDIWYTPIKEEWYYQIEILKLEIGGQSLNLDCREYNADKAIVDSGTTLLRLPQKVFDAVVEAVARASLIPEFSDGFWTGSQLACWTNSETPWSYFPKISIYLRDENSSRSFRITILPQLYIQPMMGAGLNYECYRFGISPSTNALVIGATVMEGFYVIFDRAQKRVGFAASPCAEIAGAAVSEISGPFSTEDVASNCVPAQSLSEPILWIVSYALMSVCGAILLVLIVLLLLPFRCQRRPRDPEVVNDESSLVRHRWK

[4] = substrate NH3-[…]-CO2, MALDI-TOF

Sequence of Cathepsin D (P07339 65-412, species assumed): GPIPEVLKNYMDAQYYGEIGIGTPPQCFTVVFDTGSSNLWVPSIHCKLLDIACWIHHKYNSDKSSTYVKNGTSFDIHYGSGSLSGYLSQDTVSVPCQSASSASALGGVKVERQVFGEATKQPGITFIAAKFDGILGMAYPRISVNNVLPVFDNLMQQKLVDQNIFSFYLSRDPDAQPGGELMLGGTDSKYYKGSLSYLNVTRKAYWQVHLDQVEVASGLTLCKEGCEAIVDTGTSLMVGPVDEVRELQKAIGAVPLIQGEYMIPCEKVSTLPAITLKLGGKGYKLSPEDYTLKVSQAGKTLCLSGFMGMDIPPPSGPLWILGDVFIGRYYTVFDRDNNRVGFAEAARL

| Compound | Ki [1, 4] | Ki [2] | Ki [3] | Ki ([1]; substrate NH3-ELDLAVEFWHDR-CO2, MALDI-TOF) |
| --- | --- | --- | --- | --- |
| Cc1nc(COC(=O)N[C@@H](CS(C)(=O)=O)C(=O)N[C@H](CC(C)C)[C@@H](O)C[C@@H](C)C(=O)NCC(C)C)c(C)o1 [Structure 42] | – | > 1000 nM | > 1000 nM | – |
| Cc1csc(COC(=O)N[C@@H](CS(C)(=O)=O)C(=O)N[C@H](CC(C)C)[C@@H](O)C[C@@H](C)C(=O)N[C@@H](C(=O)NCc2ccncc2)C(C)C)n1 [Structure 45] | 100 to 1000 nM | 100 to 1000 nM | > 1000 nM | – |
| CSC[C@H](NC(=O)OCc1nc(C)cs1)C(=O)N[C@H](Cc1ccccc1)[C@@H](O)C[C@@H](C)C(=O)N[C@@H](C(=O)NCC(C)C)C(C)C [Structure 52] | < 100 nM | < 100 nM | 100 to 1000 nM | – |
| CSC[C@H](NC(=O)OCc1noc(C)n1)C(=O)N[C@H](CC(C)C)[C@@H](O)C[C@@H](C)C(=O)N[C@@H](C(=O)NCC(C)C)C(C)C [Structure 61] | < 100 nM | 100 to 1000 nM | > 1000 nM | – |
| Cc1nc(COC(=O)N[C@@H](CS(C)(=O)=O)C(=O)N[C@H](CC(C)C)[C@@H](O)C[C@@H](C)C(=O)N[C@@H](C(=O)NCC(C)C)C(C)C)no1 [Structure 62] | 100 to 1000 nM | > 1000 nM | > 1000 nM | – |
| Cc1csc(COC(=O)N[C@@H](CS(C)(=O)=O)C(=O)N[C@@H](CC(C)C)[C@@H](O)C[C@@H](C)C(=O)NN(C)S(C)(=O)=O)n1 [Structure 63] | > 1000 nM | > 1000 nM | > 1000 nM | – |
| Cc1noc(COC(=O)N[C@@H](CS(C)(=O)=O)C(=O)N[C@H](CC(C)C)[C@@H](O)C[C@@H](C)C(=O)N[C@@H](C(=O)NCC(C)C)C(C)C)n1 [Structure 69] | 100 to 1000 nM | 100 to 1000 nM | 100 to 1000 nM | – |
| CSC[C@H](NC(=O)OCc1nc(C)cs1)C(=O)N[C@H](CC(C)C)[C@@H](O)C[C@@H](C)C(=O)NCC1CCC(C(=O)OCc2ccccc2)CC1 (stereo partly drawn) [Structure 76] | < 100 nM | > 1000 nM | > 1000 nM | – |
| CSC[C@H](NC(=O)OCc1nc(C)cs1)C(=O)N[C@H](CC(C)C)[C@@H](O)C[C@@H](C)C(=O)N[C@@H](c1ncc[nH]1)C(C)C [Structure 80] | 100 to 1000 nM | > 1000 nM | > 1000 nM | – |
| CSC[C@H](NC(=O)OCc1nc(C)cs1)C(=O)N[C@H](CC(C)C)[C@@H](O)C[C@@H](C)C(=O)N[C@H](CN(C)C)C(=O)NC(C)C [Structure 81] | > 1000 nM | > 1000 nM | > 1000 nM | – |
| Cc1csc(COC(=O)N[C@@H](CS(C)(=O)=O)C(=O)N[C@H](CC(C)C)[C@@H](O)C[C@@H](C)C(=O)NCC2CCC(C(=O)OCc3ccccc3)CC2)n1 (stereo partly drawn) [Structure 82] | < 100 nM | > 1000 nM | > 1000 nM | – |
| Cc1csc(COC(=O)N[C@@H](CS(C)(=O)=O)C(=O)N[C@@H](CC(C)C)[C@@H](O)C[C@@H](C)C(=O)N[C@H]2CCNC2=O)n1 [Structure 83] | > 1000 nM | > 1000 nM | > 1000 nM | – |
| CSC[C@H](NC(=O)OCc1nc(C)oc1C)C(=O)N[C@H](CC(C)C)[C@@H](O)C[C@@H](C)C(=O)N[C@@H](C(=O)OCc1ccccc1)C(C)C [Structure 84] | 100 to 1000 nM | > 1000 nM | > 1000 nM | – |
| Cc1nc(COC(=O)N[C@@H](CS(C)(=O)=O)C(=O)N[C@H](CC(C)C)[C@@H](O)C[C@@H](C)C(=O)N[C@@H](C(=O)OCc2ccccc2)C(C)C)c(C)o1 [Structure 85] | 100 to 1000 nM | 100 to 1000 nM | 100 to 1000 nM | – |
| CC[C@H](C[C@H](O)[C@@H](CC(C)C)NC(=O)[C@H](CSC)NC(=O)OCc1nc(C)oc1C)C(=O)N[C@@H](C(=O)NCC(C)C)C(C)C [Structure 89] | < 100 nM | < 100 nM | 100 to 1000 nM | – |

The remaining lines, values ahead:

| Ki [1, 4] | Ki [2] | Ki [3] | Ki ([1]; substrate NH3-ELDLAVEFWHDR-CO2, MALDI-TOF) | Compound |
| --- | --- | --- | --- | --- |
| 100 to 1000 nM | > 1000 nM | < 100 nM | – | CSC[C@H](NC(=O)OCc1nccn1C)C(=O)N[C@@H](CC(C)C)[C@@H](O)C[C@@H](C)C(=O)N[C@@H](C(=O)NCC(C)C)C(C)C [Structure 6] |
| < 100 nM | < 100 nM | < 100 nM | – | C=CCSC[C@H](NC(=O)CCn1nc(C)cc1C)C(=O)N[C@@H](CC(C)C)[C@@H](O)C[C@@H](C)C(=O)N[C@H](C(=O)NCC(C)C)C(C)C [Structure 10] |
| < 100 nM | > 1000 nM | 100 to 1000 nM | – | CSC[C@H](NC(=O)CC(C)n1nc(C)cc1C)C(=O)N[C@@H](CC(C)C)[C@@H](O)C[C@@H](C)C(=O)N[C@H](C(=O)NCC(C)C)C(C)C (stereo partly drawn) [Structure 11] |
| < 100 nM | < 100 nM | < 100 nM | – | COCSC[C@H](NC(=O)CCn1nc(C)cc1C)C(=O)N[C@H](CC(C)C)[C@@H](O)C[C@@H](C)C(=O)N[C@@H](C(=O)NCC(C)C)C(C)C [Structure 14] |
| 100 to 1000 nM | 100 to 1000 nM | 100 to 1000 nM | – | COCS(=O)(=O)C[C@H](NC(=O)CCn1nc(C)cc1C)C(=O)N[C@H](CC(C)C)[C@@H](O)C[C@@H](C)C(=O)N[C@@H](C(=O)NCC(C)C)C(C)C [Structure 15] |
| 100 to 1000 nM | 100 to 1000 nM | 100 to 1000 nM | – | CC(C)CNC(=O)[C@H](NC(=O)[C@H](C)C[C@H](O)[C@@H](CC(C)C)NC(=O)[C@H](CS(C)(=O)=O)NC(=O)OCc1ccn(C)n1)C(C)C [Structure 20] |
| < 100 nM | 100 to 1000 nM | 100 to 1000 nM | – | CSC[C@H](NC(=O)OCc1csc(C)n1)C(=O)N[C@H](CC(C)C)[C@@H](O)C[C@@H](C)C(=O)N[C@@H](C(=O)NCC(C)C)C(C)C [Structure 21] |
| < 100 nM | < 100 nM | 100 to 1000 nM | – | COCCOCSC[C@H](NC(=O)OCc1nc(C)cs1)C(=O)N[C@H](CC(C)C)[C@@H](O)C[C@@H](C)C(=O)N[C@@H](C(=O)NCC(C)C)C(C)C [Structure 23] |
| < 100 nM | > 1000 nM | 100 to 1000 nM | – | CCS(=O)(=O)C[C@H](NC(=O)OCc1nc(C)c[s+]1[O-])C(=O)N[C@H](CC(C)C)[C@@H](O)C[C@@H](C)C(=O)N[C@@H](C(=O)NCC(C)C)C(C)C (stereo partly drawn) [Structure 24] |
| 100 to 1000 nM | 100 to 1000 nM | < 100 nM | – | Cc1nc(COC(=O)N[C@@H](CS(C)(=O)=O)C(=O)N[C@H](CC(C)C)[C@@H](O)C[C@@H](C)C(=O)N[C@@H](C(=O)NCC(C)C)C(C)C)cs1 [Structure 25] |
| – | – | 100 to 1000 nM | – | Cc1nc(COC(=O)N[C@@H](CS(C)(=O)=O)C(=O)N[C@H](CC(C)C)[C@@H](O)C[C@@H](C)C(=O)N[C@@H](C(=O)NCC(C)C)C(C)C)cs1 [Structure 26] |
| < 100 nM | 100 to 1000 nM | 100 to 1000 nM | – | CSC[C@H](NC(=O)OCc1coc(C)n1)C(=O)N[C@H](CC(C)C)[C@@H](O)C[C@@H](C)C(=O)N[C@@H](C(=O)NCC(C)C)C(C)C [Structure 27] |
| 100 to 1000 nM | 100 to 1000 nM | 100 to 1000 nM | – | Cc1nc(COC(=O)N[C@@H](CS(C)(=O)=O)C(=O)N[C@H](CC(C)C)[C@@H](O)C[C@@H](C)C(=O)N[C@@H](C(=O)NCC(C)C)C(C)C)co1 [Structure 28] |
| > 1000 nM | 100 to 1000 nM | 100 to 1000 nM | – | Cc1csc(COC(=O)N[C@@H](CS(C)(=O)=O)C(=O)N[C@H](CC(C)C)[C@@H](O)C[C@@H](C)C(=O)N[C@@H](C(=O)NCC(C)C)C2CCCCC2)n1 [Structure 33] |
| < 100 nM | < 100 nM | 100 to 1000 nM | – | CSC[C@H](NC(=O)CCc1nc(C)oc1C)C(=O)N[C@H](CC(C)C)[C@@H](O)C[C@@H](C)C(=O)N[C@@H](C(=O)NCC(C)C)C(C)C [Structure 41] |
| 100 to 1000 nM | < 100 nM | < 100 nM | – | Cc1nc(CCC(=O)N[C@@H](CS(C)(=O)=O)C(=O)N[C@H](CC(C)C)[C@@H](O)C[C@@H](C)C(=O)N[C@@H](C(=O)NCC(C)C)C(C)C)c(C)o1 [Structure 44] |
| < 100 nM | < 100 nM | < 100 nM | – | Cc1nc(COC(=O)N[C@@H](CS(C)(=O)=O)C(=O)N[C@H](Cc2ccccc2)[C@@H](O)C[C@@H](C)C(=O)N[C@@H](C(=O)NCC(C)C)C(C)C)c(C)o1 [Structure 51] |
| – | < 100 nM | < 100 nM | < 100 nM | CSC[C@H](NC(=O)[C@@H](C)Cc1nc(C)cs1)C(=O)N[C@H](CC(C)C)[C@@H](O)C[C@@H](C)C(=O)N[C@@H](C(=O)NCC(C)C)C(C)C [Structure 65] |
| < 100 nM | < 100 nM | < 100 nM | – | CCc1nc(COC(=O)N[C@@H](CSC)C(=O)N[C@H](CC(C)C)[C@@H](O)C[C@@H](C)C(=O)N[C@@H](C(=O)NCC(C)C)C(C)C)c(C)s1 [Structure 70] |
| 100 to 1000 nM | < 100 nM | < 100 nM | – | Cc1nc(COC(=O)N[C@@H](CS(C)(=O)=O)C(=O)N[C@H](CC(C)C)[C@@H](O)C[C@@H](C)C(=O)N[C@@H](C(=O)NCc2cccnc2)C(C)C)c(C)o1 [Structure 87] |
